Measured values taken from the supplement of paper PMC10307832.

Key:
Test in all cases: relative viability (nuclei count vs DMSO), 5 days (fraction); higher = more cells survive
Tozasertib + Crizotinib = compound: Cc1cc(Nc2cc(N3CCN(C)CC3)nc(Sc3ccc(NC(=O)C4CC4)cc3)n2)n[nH]1 [Tozasertib] + C[C@@H](Oc1cc(-c2cnn(C3CCNCC3)c2)cnc1N)c1c(Cl)ccc(F)c1Cl [Crizotinib] (partner 1 µM)
In short: (§1)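 Relative viability equals treated-well nuclei counts divided by vehicle-well nuclei counts. Counts came from 4× images of lung cancer cell lines grown in 1536-well plates for 5 days after pin-tool dosing on the day after seeding. Dosing used one drug alone or a fixed anchor-drug dose plus five library-drug doses (not always all listed) in √10 steps, and values are medians of duplicate plates.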

Tozasertib + Olaparib = compound: Cc1cc(Nc2cc(N3CCN(C)CC3)nc(Sc3ccc(NC(=O)C4CC4)cc3)n2)n[nH]1 [Tozasertib] + O=C(c1cc(Cc2n[nH]c(=O)c3ccccc23)ccc1F)N1CCN(C(=O)C2CC2)CC1 [Olaparib] (partner 8 µM)
In short: as §1

Tozasertib + Navitoclax = compound: Cc1cc(Nc2cc(N3CCN(C)CC3)nc(Sc3ccc(NC(=O)C4CC4)cc3)n2)n[nH]1 [Tozasertib] + CC1(C)CCC(c2ccc(Cl)cc2)=C(CN2CCN(c3ccc(C(=O)NS(=O)(=O)c4ccc(N[C@H](CCN5CCOCC5)CSc5ccccc5)c(S(=O)(=O)C(F)(F)F)c4)cc3)CC2)C1 [Navitoclax] (partner 0.5 µM)
In short: as §1

Tozasertib + Linsitinib = compound: Cc1cc(Nc2cc(N3CCN(C)CC3)nc(Sc3ccc(NC(=O)C4CC4)cc3)n2)n[nH]1 [Tozasertib] + C[C@]1(O)C[C@@H](c2nc(-c3ccc4ccc(-c5ccccc5)nc4c3)c3c(N)nccn32)C1 [Linsitinib] (partner 1 µM)
In short: as §1

Tozasertib + Bortezomib = compound: Cc1cc(Nc2cc(N3CCN(C)CC3)nc(Sc3ccc(NC(=O)C4CC4)cc3)n2)n[nH]1 [Tozasertib] + CC(C)C[C@H](NC(=O)[C@H](Cc1ccccc1)NC(=O)c1cnccn1)B(O)O [Bortezomib] (partner 0.002 µM)
In short: as §1

Tozasertib + Lapatinib = compound: Cc1cc(Nc2cc(N3CCN(C)CC3)nc(Sc3ccc(NC(=O)C4CC4)cc3)n2)n[nH]1 [Tozasertib] + CS(=O)(=O)CCNCc1ccc(-c2ccc3ncnc(Nc4ccc(OCc5cccc(F)c5)c(Cl)c4)c3c2)o1 [Lapatinib] (partner 2 µM)
In short: as §1

Tozasertib + Pictilisib = compound: Cc1cc(Nc2cc(N3CCN(C)CC3)nc(Sc3ccc(NC(=O)C4CC4)cc3)n2)n[nH]1 [Tozasertib] + CS(=O)(=O)N1CCN(Cc2cc3nc(-c4cccc5[nH]ncc45)nc(N4CCOCC4)c3s2)CC1 [Pictilisib] (partner 1 µM)
In short: as §1

Tozasertib + Alpelisib = compound: Cc1cc(Nc2cc(N3CCN(C)CC3)nc(Sc3ccc(NC(=O)C4CC4)cc3)n2)n[nH]1 [Tozasertib] + Cc1nc(NC(=O)N2CCC[C@H]2C(N)=O)sc1-c1ccnc(C(C)(C)C(F)(F)F)c1 [Alpelisib] (partner 2 µM)
In short: as §1

Tozasertib + Foretinib = compound: Cc1cc(Nc2cc(N3CCN(C)CC3)nc(Sc3ccc(NC(=O)C4CC4)cc3)n2)n[nH]1 [Tozasertib] + COc1cc2c(Oc3ccc(NC(=O)C4(C(=O)Nc5ccc(F)cc5)CC4)cc3F)ccnc2cc1OCCCN1CCOCC1 [Foretinib] (partner 0.25 µM)
In short: as §1

Tozasertib = compound: Cc1cc(Nc2cc(N3CCN(C)CC3)nc(Sc3ccc(NC(=O)C4CC4)cc3)n2)n[nH]1 [Tozasertib]
In short: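 Only plates meeting two conditions passed: control CV below 25% and at least one doubling. Lung cancer cell lines, kept overnight at 37 °C in 1536-well plates, were pinned with five library-drug doses (not always all listed) √10 apart on vehicle-anchored plates and grown 5 days without medium change. A one-step fix, permeabilisation and Hoechst stain preceded 4× imaging and MetaXpress nuclear counting. Viability equals treated-well nuclei divided by vehicle-well nuclei, as the median over plates.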

Tozasertib + Vorinostat = compound: Cc1cc(Nc2cc(N3CCN(C)CC3)nc(Sc3ccc(NC(=O)C4CC4)cc3)n2)n[nH]1 [Tozasertib] + O=C(CCCCCCC(=O)Nc1ccccc1)NO [Vorinostat] (partner 1 µM)
In short: as §1

Calu-6
relative viability (Tozasertib + Crizotinib; first compound 0.004 µM): 0.796
relative viability (Tozasertib + Crizotinib; first compound 0.04 µM): 0.433
relative viability (Tozasertib + Crizotinib; first compound 0.1265 µM): 0.265
relative viability (Tozasertib + Olaparib; first compound 0.004 µM): 0.557
relative viability (Tozasertib + Olaparib; first compound 0.01265 µM): 0.516
relative viability (Tozasertib + Olaparib; first compound 0.04 µM): 0.595
relative viability (Tozasertib + Olaparib; first compound 0.1265 µM): 0.293
relative viability (Tozasertib + Navitoclax; first compound 0.004 µM): 0.85
relative viability (Tozasertib + Navitoclax; first compound 0.01265 µM): 0.88
relative viability (Tozasertib + Navitoclax; first compound 0.04 µM): 0.779
relative viability (Tozasertib + Navitoclax; first compound 0.1265 µM): 0.153
relative viability (Tozasertib + Linsitinib; first compound 0.004 µM): 0.952
relative viability (Tozasertib + Linsitinib; first compound 0.01265 µM): 0.853
relative viability (Tozasertib + Linsitinib; first compound 0.04 µM): 1
relative viability (Tozasertib + Linsitinib; first compound 0.1265 µM): 0.309
relative viability (Tozasertib + Bortezomib; first compound 0.004 µM): 0.987
relative viability (Tozasertib + Bortezomib; first compound 0.01265 µM): 1.03
relative viability (Tozasertib + Bortezomib; first compound 0.04 µM): 1.08
relative viability (Tozasertib + Bortezomib; first compound 0.1265 µM): 0.391
relative viability (Tozasertib + Lapatinib; first compound 0.004 µM): 1.17
relative viability (Tozasertib + Lapatinib; first compound 0.01265 µM): 0.983
relative viability (Tozasertib + Lapatinib; first compound 0.04 µM): 1.08
relative viability (Tozasertib + Lapatinib; first compound 0.1265 µM): 0.293
relative viability (Tozasertib + Pictilisib; first compound 0.004 µM): 0.946
relative viability (Tozasertib + Pictilisib; first compound 0.01265 µM): 0.862
relative viability (Tozasertib + Pictilisib; first compound 0.04 µM): 0.781
relative viability (Tozasertib + Pictilisib; first compound 0.1265 µM): 0.259
relative viability (Tozasertib + Alpelisib; first compound 0.004 µM): 1.19
relative viability (Tozasertib + Alpelisib; first compound 0.01265 µM): 0.96
relative viability (Tozasertib + Alpelisib; first compound 0.04 µM): 0.797
relative viability (Tozasertib + Alpelisib; first compound 0.1265 µM): 0.402
relative viability (Tozasertib + Foretinib; first compound 0.004 µM): 0.946
relative viability (Tozasertib + Foretinib; first compound 0.01265 µM): 0.903
relative viability (Tozasertib + Foretinib; first compound 0.04 µM): 0.69
relative viability (Tozasertib + Foretinib; first compound 0.1265 µM): 0.229
relative viability (Tozasertib; 0.004 µM): 1.06
relative viability (Tozasertib; 0.01265 µM): 0.953
relative viability (Tozasertib; 0.04 µM): 0.998
relative viability (Tozasertib; 0.1265 µM): 0.546

IA-LM
relative viability (Tozasertib + Crizotinib; first compound 0.004 µM): 0.784
relative viability (Tozasertib + Crizotinib; first compound 0.01265 µM): 1.05
relative viability (Tozasertib + Crizotinib; first compound 0.04 µM): 0.817
relative viability (Tozasertib + Crizotinib; first compound 0.1265 µM): 0.851
relative viability (Tozasertib + Olaparib; first compound 0.004 µM): 0.976
relative viability (Tozasertib + Olaparib; first compound 0.01265 µM): 0.909
relative viability (Tozasertib + Olaparib; first compound 0.04 µM): 0.779
relative viability (Tozasertib + Olaparib; first compound 0.1265 µM): 0.814
relative viability (Tozasertib + Vorinostat; first compound 0.04 µM): 0.855
relative viability (Tozasertib + Vorinostat; first compound 0.1265 µM): 0.854
relative viability (Tozasertib + Navitoclax; first compound 0.004 µM): 0.969
relative viability (Tozasertib + Navitoclax; first compound 0.01265 µM): 0.784
relative viability (Tozasertib + Navitoclax; first compound 0.04 µM): 0.767
relative viability (Tozasertib + Navitoclax; first compound 0.1265 µM): 0.797
relative viability (Tozasertib + Linsitinib; first compound 0.004 µM): 0.697
relative viability (Tozasertib + Linsitinib; first compound 0.01265 µM): 0.564
relative viability (Tozasertib + Linsitinib; first compound 0.04 µM): 0.533
relative viability (Tozasertib + Linsitinib; first compound 0.1265 µM): 0.307
relative viability (Tozasertib + Bortezomib; first compound 0.004 µM): 0.794
relative viability (Tozasertib + Bortezomib; first compound 0.1265 µM): 0.849
relative viability (Tozasertib + Lapatinib; first compound 0.004 µM): 0.967
relative viability (Tozasertib + Lapatinib; first compound 0.01265 µM): 0.838
relative viability (Tozasertib + Lapatinib; first compound 0.04 µM): 1.13
relative viability (Tozasertib + Lapatinib; first compound 0.1265 µM): 0.479
relative viability (Tozasertib + Pictilisib; first compound 0.004 µM): 0.336
relative viability (Tozasertib + Pictilisib; first compound 0.01265 µM): 0.302
relative viability (Tozasertib + Pictilisib; first compound 0.04 µM): 0.457
relative viability (Tozasertib + Pictilisib; first compound 0.1265 µM): 0.265
relative viability (Tozasertib + Alpelisib; first compound 0.004 µM): 0.715
relative viability (Tozasertib + Alpelisib; first compound 0.01265 µM): 0.753
relative viability (Tozasertib + Alpelisib; first compound 0.04 µM): 0.871
relative viability (Tozasertib + Alpelisib; first compound 0.1265 µM): 0.457
relative viability (Tozasertib + Foretinib; first compound 0.004 µM): 1.38
relative viability (Tozasertib + Foretinib; first compound 0.01265 µM): 1.18
relative viability (Tozasertib + Foretinib; first compound 0.04 µM): 1.11
relative viability (Tozasertib + Foretinib; first compound 0.1265 µM): 0.914
relative viability (Tozasertib; 0.004 µM): 1.06
relative viability (Tozasertib; 0.01265 µM): 0.819
relative viability (Tozasertib; 0.04 µM): 0.954
relative viability (Tozasertib; 0.1265 µM): 0.795
